Patent US20170183306A1, “CYCLIC COMPOUNDS HAVING A 1,3 DIAMINO-FUNCTIONALITY FOR USE IN THE TREATMENT OF HIV INFECTION” (Universite Paris Descartes, priority 2014, published 2017)
Counter-ions that a name gives are not always drawn. Like-named read-outs stand apart in the source and are kept apart here.

Experiments:
[1] = tested on: Laï virus in MT2 cells (human lymphocytic cell line); experiment: MT2 cells infected with Laï virus, real-time PCR of viral RNA of the supernatant; format: cell-based, HIV-1; details: for viral RNA of the supernatant, 10 μM / viral RNA of the supernatant, 25 μM / viral RNA of the supernatant, 50 μM / viral RNA of the supernatant, 100 μM: 3 days of culture, control = virus without any added compound; for viral replication in human lymphocytes (in words): summary of Table 3
Experimental: In an experiment, MT2 cells (human lymphocytic cell line) are infected with the Laï virus to a multiplicity of infection of 0.3 and incubated with compounds A, B, C or D at four different concentrations.
After 3 days of culture, real-time PCR quantification of the viral RNA of the supernatant is performed (COBAS Ampliprep/COBAS TaqMan HIV-1 assay, version 2).
The results are expressed as percentage of control (virus without any added compound) in Table 3.

[2] = tested on: wild type NL4-3 virus (HIV-1) in HeLa-p4 cells; experiment: HeLa-p4 single-cycle HIV-1 infectivity, beta-galactosidase CPRG test; format: cell-based; details: Human immunodeficiency virus 1, NL43, HeLaP4, 48 hours after infection, control = NL4-3 virus alone; for activity at 50 µM: read-out: Hela-p4 CPRG 50 μM; for activity at 100 µM: read-out: Hela-p4 CPRG 100 μM
How it was run: (§1)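 HeLa CD4 LTR-LacZ cells infected with 1 ng p24 of wild-type NL4-3 alongside graded compound concentrations; β-galactosidase measured 48 h post-infection by CPRG colorimetry, expressed as percent of untreated virus control. Viability assessed by MTS absorbance at […].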

[3] = tested on: HIV in T CD4+ cells from HIV-infected patients; experiment: HIV production by CD4+ T cells of HIV-infected, antiretroviral-treated, aviremic patients (real time PCR); format: cell-based, HIV-1; details: one line per patient; for Compound: ratio of the viral load of interest/viral load of negative control: compound alone
Source text: For experiments using primary cells obtained from HIV-infected, antiretroviral-treated, aviremic patients, total CD4+ cells are isolated by a MACS) Whole Blood MicroBead Technology (Miltenyi). Briefly, T CD4+ cells from whole blood are magnetically labeled with MACS MicroBeads and specific antibodies. Cells are separated in a MACS Column placed in a MACS Separator. The flow-through fraction can be collected as the negative fraction depleted of the labeled cells. The column is removed from the separator and the retained cells are eluted as the enriched, positively selected cell fraction. The T CD4+ cells were then cultured with a T cell activation/expansion kit (Miltenyi). The cells are activated for up to 3 days with Anti-Biotin MACSiBead Particle conjugated to monoclonal anti-biotin antibodies (anti CD2-biotin, […] and anti CD28-biotin). Expansion is achieved by adding IL-2 and fresh medium for 4 days. Then, these T CD4+ cells are considered as positive culture. A negative control was the same proportion of cells cultured without stimuli like antibodies and IL-2. The T CD4+ cells were cultured with compounds alone or in combination with antibodies or IL-2. The HIV production in cell culture media was measured by real time PCR (Cobas AmpliPrep/Cobas Taqman HIV-1 test, V2.0, Roche). The results are expressed in table 2 as a ratio of the viral load of interest/viral load of negative control or as a ratio of the viral load of interest/viral load of positive control.

[4] = tested on: HeLa-p4 cells; experiment: Cell viability assay (MTS) on HeLa-p4 cells; format: cell-based; details: cell viability
How it was run: as §1

[5] = tested on: J-Lat cells; experiment: J-Lat cells, percentage of GFP-positive cells by cytometry; format: cell-based; details: 24 h, compound alone
How it was run: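 J-Lat cells (5.105 per well, RPMI/10% FBS) treated 24 h with compound alone at 37 °C. After PFA fixation, GFP-positive cells counted by flow cytometry and reported as percentage of living fluorescent cells.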

[6] = tested on: HIV; details: cited from earlier work
[7] = cited from earlier work

| Compound | activity at 50 µM [2] [%] | activity at 100 µM [2] [%] | activity at 200 µM [2] [%] | Hela-p4 MTS 50 μM [4] | Hela-p4 MTS 100 μM [4] | Hela-p4 MTS 200 μM [4] | J-lat 50 μM [5] | other results |
| --- | --- | --- | --- | --- | --- | --- | --- | --- |
| COC(=O)C(Cc1ccccc1)N1C[C@H](N)C[C@H](N)C1 (some centres unmarked) [Compound B] |  |  |  |  |  |  |  | viral RNA of the supernatant, 10 μM [1]: 420 percentage of control; viral RNA of the supernatant, 25 μM [1]: 40 percentage of control; viral RNA of the supernatant, 50 μM [1]: 70 percentage of control; viral RNA of the supernatant, 100 μM [1]: 32400 percentage of control; viral replication in human lymphocytes (in words) [1]: induce viral replication at an extremely high level |
| N[C@@H]1CNC[C@H](N)C1 [ECO01-025-C2, piperidine-3,5-diamine] | 166 | 280 | 317 | 104 | 79 | 70 | 0.7 percentage of the living fluorescent cells | Compound: ratio of the viral load of interest/viral load of negative control [3]: 1 |
| CCN(CC)C(=S)SSC(=S)N(CC)CC [Disulfirame] |  |  |  |  |  |  |  | capacity to induce HIV replication in clinical trial [6]: low capacity to induce HIV replication |
| CC(C)(C)OC(=O)N[C@@H]1CNC[C@H](NC(=O)OC(C)(C)C)C1 [ECO02-051-C] | 124 | 200 | 397 | 95 | 96 | 77 | 1.1 percentage of the living fluorescent cells | Compound: ratio of the viral load of interest/viral load of negative control [3]: 1; Compound + IL2: ratio of the viral load of interest/viral load of negative control ([3]; compound in combination with IL2): 1 |
| C/C=C1\NC(=O)[C@H]2CSSCC/C=C/[C@H](CC(=O)N[C@H](C(C)C)C(=O)N2)OC(=O)[C@H](C(C)C)NC1=O [Romidepsin] |  |  |  |  |  |  |  | adverse effects in clinical trials ([7]; in vivo): important adverse effects |
| N[C@@H]1C[C@H](N)CN(c2ccc(NC(=O)c3ccccc3)c(O)c2)C1 [Compound C] |  |  |  |  |  |  |  | viral RNA of the supernatant, 10 μM [1]: 21200 percentage of control; viral RNA of the supernatant, 25 μM [1]: 83500 percentage of control; viral RNA of the supernatant, 50 μM [1]: 66400 percentage of control; viral RNA of the supernatant, 100 μM [1]: 931700 percentage of control; viral replication in human lymphocytes (in words) [1]: induce viral replication at an extremely high level |
| Cc1[nH]c2ccccc2c1CCNCc1ccc(/C=C/C(=O)NO)cc1 [LBH589] |  |  |  |  |  |  |  | adverse effects in clinical trials ([7]; in vivo): important adverse effects |
| COc1ccc(CCN2C[C@H](N)C[C@H](N)C2)cc1OC [Compound A] |  |  |  |  |  |  |  | viral RNA of the supernatant, 10 μM [1]: 130 percentage of control; viral RNA of the supernatant, 25 μM [1]: 60 percentage of control; viral RNA of the supernatant, 50 μM [1]: 50 percentage of control; viral RNA of the supernatant, 100 μM [1]: 73200 percentage of control; viral replication in human lymphocytes (in words) [1]: induce viral replication at an extremely high level |
| O=C(CCCCCCC(=O)Nc1ccccc1)NO [vorinostat] |  |  |  |  |  |  |  | adverse effects in clinical trials ([7]; first results of on-going clinical trials): important adverse effects |
| COc1ccc2c(CN3C[C@H](NC(=O)OC(C)(C)C)C[C@H](NC(=O)OC(C)(C)C)C3)cn(C)c2c1 [ECO02-060-C, di-tert-butyl (1-((6-methoxy-1-methyl-1H-indol-3-yl)methyl)piperidine-3,5-diyl)dicarbamate] | 178 | 221 | 217 | 69 | 54 | 43 | 0.6 percentage of the living fluorescent cells |  |
| COc1ccc(CCN2C[C@H](N)C[C@H](N)C2)cc1 [ECO02-025-C, 1-(4-methoxyphenethyl)piperidine-3,5-diamine] | 90 | 123 |  | 112 | 82 |  | 0.3 percentage of the living fluorescent cells | J-lat 100 μM ([5]; 100 μM): 0.3 percentage of the living fluorescent cells |
| N[C@@H]1C[C@H](N)CN(Cc2ccccc2)C1 [ECO02-063-C, 1-benzylpiperidine-3,5-diamine trihydrochloride] | 85 | 107 | 193 | 108 | 112 | 81 | 2.9 percentage of the living fluorescent cells |  |
